Earlier results in patent US6986763B2, “Methods and compositions usable in cataract surgery” (PHACOTREAT AB, priority 2001, dated 2006).

Columns and labels:
lens epithelial cells [1] = conditions: in vitro
lens epithelial cells [2] = conditions: cadaver eyes; for separation of lens epithelial cells: agent in irrigation solution

Compound	inhibiting lens epithelial cells proliferation (lens epithelial cells [1])	separation of lens epithelial cells (lens epithelial cells [2])	damage to the zonules (lens epithelial cells [2]; 2% solution in irrigation solution)
CC(=O)O[C@H]1C(=O)[C@@]2(C)[C@H]([C@H](OC(=O)c3ccccc3)[C@]3(O)C[C@H](OC(=O)[C@H](O)[C@@H](NC(=O)c4ccccc4)c4ccccc4)C(C)=C1C3(C)C)[C@]1(OC(C)=O)CO[C@@H]1C[C@@H]2O [taxol]	effective		
CN(Cc1cnc2nc(N)nc(N)c2n1)c1ccc(C(=O)N[C@@H](CCC(=O)O)C(=O)O)cc1 [methotrexate]	effective		
COc1cccc2c1C(=O)c1c(O)c3c(c(O)c1C2=O)C[C@@](O)(C(=O)CO)C[C@@H]3O[C@H]1C[C@H](N)[C@H](O)[C@H](C)O1 [doxorubicin]	effective		
O=c1[nH]cc(F)c(=O)[nH]1 [5-fluorouracil]	effective		
COc1cc2c(c(OC)c1OC)-c1ccc(OC)c(=O)cc1[C@@H](NC(C)=O)CC2 [colchicines]	effective		
O=C(O)CN(CCN(CC(=O)O)CC(=O)O)CC(=O)O [EDTA, Ethylenediamine tetraacetic acid]		the anterior lens epithelial cells could be separated	
CO[C@@]12[C@H](COC(N)=O)C3=C(C(=O)C(C)=C(N)C3=O)N1C[C@@H]1N[C@@H]12 [mitomycin]	effective		
trypsin		lens epithelial cells were stripped in places	the zonules were damaged
COc1cccc2c1C(=O)c1c(O)c3c(c(O)c1C2=O)C[C@@](O)(C(C)=O)C[C@@H]3O[C@H]1C[C@H](N)[C@H](O)[C@H](C)O1 [daunomycin/daunorubicin]	effective		
